This passage reports Ki and IC50 results from US20230293517A1, “ANTAGONIST COMPOUNDS” (AdoRx Therapeutics Limited, priority 2020, published 2023).

Like-named read-outs stand apart in the source and are kept apart here.

Test [1] deals with human Adenosine A1 receptor (Homo sapiens (Human), UniProt P30542). Put plainly: Adenosine receptor TR-FRET binding assay (A1). The settings on record: inhibition of binding of 100 nM CA200645, CHO cell membranes. In outline: (§1)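 Terbium-labelled human receptors in CHO cell membranes were incubated 2 h at room temperature with test compounds and fluorescent XAC tracer CA200645 (30 nM for A2b; 100 nM for A1, A2a, A3). TR-FRET 665/620 nm ratio gave specific binding; Ki derived from IC50 by Cheng–Prusoff.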
On the technique in general: TR-FRET usually uses a lanthanide donor and a delayed reading to cut background.

Test [2] deals with human Adenosine A2a receptor (Homo sapiens (Human), UniProt P29274). Put plainly: Adenosine receptor TR-FRET binding assay (A2a). The note with it: inhibition of binding of 100 nM CA200645, CHO cell membranes. The gist of the method:
as §1

Test [3] has as its target human Adenosine A2b receptor (Homo sapiens (Human), UniProt P29275). Put plainly: Adenosine receptor TR-FRET binding assay (A2b). The gist of the method: as §1
Test [4] deals with human Adenosine A3 receptor (Homo sapiens (Human), UniProt P0DMS8). Put plainly: Adenosine receptor TR-FRET binding assay (A3). The settings on record: inhibition of binding of 100 nM CA200645, CHO cell membranes. In outline:
as §1

A further test deals with human PBMCs. Description: CD3/CD28 stimulated IL-2 release NECA reversal assay in human PBMCs. The format is cell-based. The settings on record: PBMC, 1 uM NECA, 24 hours, IL-2 in culture supernatant. As to the method: Biological Example—CD3/CD28 Stimulated IL-2 Release NECA Reversal Assay in Human PBMCs
Blood is drawn from healthy volunteers using sodium citrate as the anticoagulant (0.3% final concentration). After centrifugation of the blood over Histopaque-1077, PBMCs are collected from the Histopaque/plasma interface and washed twice in PBS (300 g for 10 mins at room temp). Cells are plated at 50,000 cells/well in 150 μl RPMI/10% FCS in 96-well cell culture plates that have been precoated with 1 ug/ml CD3 antibody. 50 μl diluted compound mix is added to the cells, to obtain final concentrations of 1 ug/ml CD28 antibody, 1 uM NECA and 0.003-10 μM adenosine receptor antagonist. Assay plates are incubated for 24 hours at 37° C. in a humidified incubator. Culture supernatant is tested for IL-2 levels using the human IL-2 Tissue Culture Kit (Meso Scale Discovery). Data for dose-response curves is calculated as % inhibition with 100% inhibition defined from no agonist control wells (+CD3/28-NECA)

The test system of test [5] is CD8+T cells in human whole blood. Description: Measurement of pCREB in CD8+T cells in human whole blood. Type of test: cell-based. The settings on record: 3 μM NECA, rolipram. As to the method: Biological Example—Measurement of pCREB in CD8+T Cells in Human Whole Blood
Heparinised human whole blood was pre-incubated at 37° C. with serial dilutions of A2a antagonists for 20 min. and the phosphodiesterase inhibitor rolipram to amplify the pCREB response. The adenosine receptor agonist NECA is then added at a final concentration of 3 μM and following a 60 min incubation the blood is fixed and red blood cells lysed. White blood cells are isolated, permeabilized and stained with directly conjugated fluorescent antibodies to phospho-CREB (Alexa Fluor 488) and CD8 (Alexa Fluor 647) and the level of phospho-CREB in CD8+T cells is measured by FACS using a BD Accuri C6 Flow Cytometer.

The mark [6] stands for this setting: TR-FRET, inhibition of binding of 30 nM CA200645, CHO cell membranes.

human Adenosine A1 receptor, sequence (P30542 whole entry): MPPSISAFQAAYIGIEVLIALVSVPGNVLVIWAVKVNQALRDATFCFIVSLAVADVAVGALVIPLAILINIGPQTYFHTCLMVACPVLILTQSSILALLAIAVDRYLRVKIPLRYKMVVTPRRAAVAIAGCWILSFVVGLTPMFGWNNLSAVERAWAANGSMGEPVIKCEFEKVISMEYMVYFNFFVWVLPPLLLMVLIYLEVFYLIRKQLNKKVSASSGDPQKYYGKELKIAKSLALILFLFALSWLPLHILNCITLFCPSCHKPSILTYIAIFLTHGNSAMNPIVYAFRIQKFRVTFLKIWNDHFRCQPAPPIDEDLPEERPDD
human Adenosine A2b receptor, sequence (P29275 whole entry): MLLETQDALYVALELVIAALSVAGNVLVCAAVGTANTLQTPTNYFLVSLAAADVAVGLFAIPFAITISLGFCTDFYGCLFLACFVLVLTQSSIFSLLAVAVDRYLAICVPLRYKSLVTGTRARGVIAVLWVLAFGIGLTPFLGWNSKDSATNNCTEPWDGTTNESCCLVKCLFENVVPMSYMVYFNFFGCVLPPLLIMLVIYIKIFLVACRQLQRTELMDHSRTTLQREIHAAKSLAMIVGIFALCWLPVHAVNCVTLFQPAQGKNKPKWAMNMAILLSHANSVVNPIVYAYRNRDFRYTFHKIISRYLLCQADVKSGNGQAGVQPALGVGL
human Adenosine A3 receptor, sequence (P0DMS8 whole entry): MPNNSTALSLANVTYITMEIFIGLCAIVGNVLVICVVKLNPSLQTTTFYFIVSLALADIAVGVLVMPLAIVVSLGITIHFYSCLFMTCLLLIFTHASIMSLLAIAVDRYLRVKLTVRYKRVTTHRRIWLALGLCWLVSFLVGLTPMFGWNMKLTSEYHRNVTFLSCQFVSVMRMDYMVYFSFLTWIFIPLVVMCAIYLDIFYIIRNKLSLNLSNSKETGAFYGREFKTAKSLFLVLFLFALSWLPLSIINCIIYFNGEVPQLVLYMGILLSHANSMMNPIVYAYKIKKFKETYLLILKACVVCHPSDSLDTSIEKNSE
human Adenosine A2a receptor, sequence (P29274 whole entry): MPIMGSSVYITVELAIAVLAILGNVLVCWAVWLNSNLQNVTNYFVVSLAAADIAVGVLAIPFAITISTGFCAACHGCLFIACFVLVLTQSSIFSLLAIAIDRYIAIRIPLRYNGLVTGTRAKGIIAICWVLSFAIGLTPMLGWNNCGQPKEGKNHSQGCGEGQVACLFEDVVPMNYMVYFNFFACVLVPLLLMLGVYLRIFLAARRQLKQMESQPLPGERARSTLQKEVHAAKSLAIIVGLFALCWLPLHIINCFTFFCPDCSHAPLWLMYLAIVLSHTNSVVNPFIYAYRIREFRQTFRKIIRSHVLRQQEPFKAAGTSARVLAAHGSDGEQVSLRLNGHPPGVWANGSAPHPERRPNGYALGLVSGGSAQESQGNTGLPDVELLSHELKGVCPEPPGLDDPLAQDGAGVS

Turning to `Cc1cc(-c2sc(NC(=O)N3CCC(C)(C#N)C3)nc2-c2cccc(C#N)c2)cc(C)n1` (racemic) [Example 27, 3-Cyano-N-[4-(3-cyanophenyl)-5-(2,6-dimethyl-4-pyridyl)thiazol-2-yl]-3-methyl-pyrrolidine-1-carboxamide], the Ki in test [1] came to 21 nM; in test [2], 0.41 nM; in test [3] (setting [6]) it was 0.8 nM; in test [4], 225 nM. Further, the IC50 in the test with human PBMCs was found to be 0.9 nM; in test [5], 80 nM.

For the compound `Cc1cc(-c2sc(NC(=O)N3CCC(C(C)(C)O)C3)nc2-c2cccc(C#N)c2)cc(Cl)n1` (stereo not shown) [Example 2, N-[5-(2-Chloro-6-methyl-4-pyridyl)-4-(3-cyanophenyl)thiazol-2-yl]-3-(1-hydroxy-1-methyl-ethyl)pyrrolidine-1-carboxamide], the Ki in test [1] was 234 nM; in test [2], 0.4 nM; in test [3] (setting [6]), 1 nM; in test [4], 849 nM. The IC50 with human PBMCs stood at 2 nM; in test [5], 280 nM.

Take `Cc1cc(-c2sc(NC(=O)N3CCNCC3)nc2-c2cccc(C#N)c2)cc(Cl)n1` [Example 3.1]: the Ki in test [1] is 94 nM; in test [2] it was 3.11 nM; in test [3] (setting [6]), 6.6 nM; in test [4], 267 nM. For the same compound, the IC50 came out at 13 nM in the test on human PBMCs and 1770 nM in test [5].

Take `Cc1cc(-c2sc(NC(=O)N3CCC(C)(O)CC3)nc2-c2cccc(C#N)c2)cc(Cl)n1` [Example 3.7]: the Ki in test [1] amounted to 14 nM; in test [2], 0.2 nM; in test [3] (setting [6]), 1.1 nM; in test [4], 382 nM. Besides, the IC50 turned out to be 3.3 nM with human PBMCs and 290 nM in test [5].

As for `Cc1cc(-c2sc(NC(=O)N3CCN[C@H](C(C)(C)O)C3)nc2-c2cccc(C#N)c2)cc(Cl)n1` [Example 3.9], the Ki in test [1] is 81 nM; in test [2], 0.49 nM; in test [3] (setting [6]), 2.2 nM; in test [4], 338 nM. Further, the results for the IC50 (in the test on human PBMCs; in test [5]) were 17.9 nM and 470 nM, respectively.

As for `Cc1cc(-c2sc(NC(=O)N3CCN(C4COC4)CC3)nc2-c2cccc(C#N)c2)cc(Cl)n1` [Example 3.11], the Ki is 102 nM in test [1], 0.52 nM in test [2], 1.2 nM in test [3] (setting [6]) and 1300 nM in test [4]. Besides, the values for the IC50 (in the test on human PBMCs; in test [5]) were 10.4 nM and 670 nM, respectively.

As to `Cc1cc(-c2sc(NC(=O)N3CCS(=N)(=O)CC3)nc2-c2cccc(C#N)c2)cc(Cl)n1` [Example 3.12], the Ki amounted to 18 nM in test [1], 0.25 nM in test [2], 1 nM in test [3] (setting [6]) and 531 nM in test [4]. Also, the IC50 in the test with human PBMCs came to 8 nM; in test [5] it was 600 nM.

Regarding `Cc1cc(-c2sc(NC(=O)N3CCN(C)CC3)nc2-c2cccc(C#N)c2)cc(C)n1` [Example 4, N-[4-(3-Cyanophenyl)-5-(2,6-dimethyl-4-pyridyl)thiazol-2-yl]-4-methyl-piperazine-1-carboxamide], the Ki in test [1] came to 60 nM; in test [2] it was 1.01 nM; in test [3] (setting [6]), 0.7 nM; in test [4], 1000 nM. Besides, the IC50 in the test with human PBMCs turned out to be 3.8 nM; in test [5], 130 nM.

`Cc1cc(-c2sc(NC(=O)N3CCS(=N)(=O)CC3)nc2-c2cccc(C#N)c2)cc(C)n1` [Example 4.2, N-[4-(3-Cyanophenyl)-5-(2,6-dimethyl-4-pyridyl)thiazol-2-yl]-1-imino-1-oxo-1,4-thiazinane-4-carboxamide]: the Ki was determined as 28 nM in test [1], 0.27 nM in test [2], 4.4 nM in test [3] (setting [6]) and 881 nM in test [4]. Also, the IC50 in the test with human PBMCs stood at 7.9 nM; in test [5], 90 nM.

Take `Cc1cc(-c2sc(NC(=O)N3CCN(CCO)CC3)nc2-c2cccc(C#N)c2)cc(C)n1` [Example 4.3, N-[4-(3-Cyanophenyl)-5-(2,6-dimethyl-4-pyridyl)thiazol-2-yl]-4-(2-hydroxyethyl)piperazine-1-carboxamide]: the Ki in test [1] amounted to 187 nM; in test [2], 0.7 nM; in test [3] (setting [6]), 3.8 nM; in test [4] it was 603 nM. Further, the results for the IC50 (in the test on human PBMCs; in test [5]) were 18.2 nM and 170 nM, respectively.

Consider `Cc1cc(-c2sc(NC(=O)N3CC[C@H](O)C3)nc2-c2cccc(C#N)c2)cc(C)n1` [Example 4.5, (3S)-N-[4-(3-Cyanophenyl)-5-(2,6-dimethyl-4-pyridyl)thiazol-2-yl]-3-hydroxy-pyrrolidine-1-carboxamide], for which the Ki in test [1] was 16 nM; in test [2] it was 1.54 nM; in test [3] (setting [6]) it was 1.4 nM; in test [4], 94 nM. In addition, the IC50 is 8.5 nM in the test on human PBMCs and 160 nM in test [5].

`Cc1cc(-c2sc(NC(=O)N3CCC(F)(C#N)CC3)nc2-c2cccc(C#N)c2)cc(C)n1` [Example 4.7, 4-Cyano-N-[4-(3-cyanophenyl)-5-(2,6-dimethyl-4-pyridyl)thiazol-2-yl]-4-fluoro-piperidine-1-carboxamide]: the Ki in test [1] came out at 6 nM; in test [2], 0.05 nM; in test [3] (setting [6]), 1.3 nM; in test [4], 125 nM. Moreover, the IC50 was 0.8 nM in the test on human PBMCs and 90 nM in test [5].

Take `Cc1cc(-c2sc(NC(=O)N3CC[C@H](S(C)(=O)=O)C3)nc2-c2cccc(C#N)c2)cc(C)n1` [Example 6.1, (3S)-N-[4-(3-Cyanophenyl)-5-(2,6-dimethyl-4-pyridyl)thiazol-2-yl]-3-methylsulfonyl-pyrrolidine-1-carboxamide]: the Ki worked out at 1.05 nM in test [2], 2.1 nM in test [3] (setting [6]) and 228 nM in test [4]. Also, the IC50 in the test with human PBMCs was found to be 3.6 nM; in test [5] it was 150 nM.

Take `Cc1cc(-c2sc(NC(=O)N3CC[C@@H](S(C)(=O)=O)C3)nc2-c2cccc(C#N)c2)cc(C)n1` [Example 6.9, (3R)-N-[4-(3-Cyanophenyl)-5-(2,6-dimethyl-4-pyridyl)thiazol-2-yl]-3-methylsulfonyl-pyrrolidine-1-carboxamide]: the Ki in test [2] came to 0.88 nM; in test [3], 0.7 nM; in test [4], 412 nM. The IC50 with human PBMCs stood at 4.3 nM; in test [5] it was 160 nM.

In the case of `Cc1cc(-c2sc(NC(=O)N3CCN4C(=O)OCC4C3)nc2-c2cccc(C#N)c2)cc(C)n1` (stereo not shown) [Example 6.13, N-[4-(3-Cyanophenyl)-5-(2,6-dimethyl-4-pyridyl)thiazol-2-yl]-3-oxo-5,6,8,8a-tetrahydro-1H-oxazolo[3,4-a]pyrazine-7-carboxamide], the Ki in test [1] was 23 nM; in test [2] it was 0.4 nM; in test [3] (setting [6]), 3.4 nM. The IC50 in the test with human PBMCs is 3.7 nM; in test [5] it was 140 nM.

Consider `Cc1cc(-c2sc(NC(=O)N3CCOC(C(C)(C)O)C3)nc2-c2cccc(C#N)c2)cc(C)n1` (stereo not shown) [Example 6.47, N-[4-(3-Cyanophenyl)-5-(2,6-dimethyl-4-pyridyl)thiazol-2-yl]-2-(1-hydroxy-1-methyl-ethyl)morpholine-4-carboxamide], for which the Ki was 38 nM in test [1], 0.37 nM in test [2] and 2.5 nM in test [3]. In addition, the IC50 in the test on human PBMCs came out at 1.9 nM; in test [5], 80 nM.

With `Cc1cc(-c2sc(NC(=O)N3CC[C@H]3CO)nc2-c2cccc(C#N)c2)cc(C)n1` [Example 6.73, (2S)-N-[4-(3-Cyanophenyl)-5-(2,6-dimethyl-4-pyridyl)thiazol-2-yl]-2-(hydroxymethyl)azetidine-1-carboxamide], the IC50 turned out to be 13.5 nM in the test with human PBMCs and 200 nM in test [5].

As a reminder, the Ki is a measure of affinity in units of concentration, obtained from inhibition or displacement. By IC50 is commonly meant the concentration that gives 50% inhibition.
